According to the CheMixHub viscosity set:
“And” between values parts separate entries of the source, which are not always exact repeats. Equal entries are not always repeated. ± gives the uncertainty stated by the source.

Assay: xn = mol fraction of the nth substance listed

CC(C)(C)O + O
viscosity (298.15 K, 100 kPa, x1 = 0.1): 3.149 ± 0.13 mPa·s | viscosity (298.15 K, 100 kPa, x1 = 0.25): 4.729 ± 0.19 mPa·s | viscosity (298.15 K, 100 kPa, x1 = 0.3): 4.782 ± 0.2 mPa·s | viscosity (298.15 K, 100 kPa, x1 = 0.4): 4.889 ± 0.2 mPa·s | viscosity (298.15 K, 100 kPa, x1 = 0.5): 4.646 ± 0.19 mPa·s | viscosity (298.15 K, 100 kPa, x1 = 0.75): 4.225 ± 0.17 mPa·s | viscosity (298.15 K, 101 kPa, x1 = 0.026): 1.506 ± 0.013 mPa·s | viscosity (298.15 K, 101 kPa, x1 = 0.057): 2.309 ± 0.021 mPa·s | viscosity (298.15 K, 101 kPa, x1 = 0.094): 3.123 ± 0.03 mPa·s | viscosity (298.15 K, 101 kPa, x1 = 0.14): 3.797 ± 0.038 mPa·s | viscosity (298.15 K, 101 kPa, x1 = 0.2): 4.311 ± 0.046 mPa·s | viscosity (298.15 K, 101 kPa, x1 = 0.27): 4.715 ± 0.053 mPa·s | viscosity (298.15 K, 101 kPa, x1 = 0.36): 4.835 ± 0.058 mPa·s | viscosity (298.15 K, 101 kPa, x1 = 0.49): 4.73 ± 0.059 mPa·s | viscosity (298.15 K, 101 kPa, x1 = 0.69): 4.355 ± 0.057 mPa·s | viscosity (298.15 K, 101.33 kPa, x1 = 0.02): 1.315 ± 0.0066 mPa·s and 1.33 ± 0.05 mPa·s and 1.27 ± 0.05 mPa·s | viscosity (298.15 K, 101.33 kPa, x1 = 0.0206): 1.337 ± 0.0087 mPa·s | viscosity (298.15 K, 101.33 kPa, x1 = 0.026): 1.52 ± 0.06 mPa·s and 1.45 ± 0.05 mPa·s | viscosity (298.15 K, 101.33 kPa, x1 = 0.0397): 1.85 ± 0.0092 mPa·s | viscosity (298.15 K, 101.33 kPa, x1 = 0.04): 1.89 ± 0.08 mPa·s and 1.79 ± 0.06 mPa·s | viscosity (298.15 K, 101.33 kPa, x1 = 0.0447): 2.015 ± 0.013 mPa·s | viscosity (298.15 K, 101.33 kPa, x1 = 0.057): 2.35 ± 0.1 mPa·s and 2.19 ± 0.08 mPa·s | viscosity (298.15 K, 101.33 kPa, x1 = 0.06): 2.379 ± 0.012 mPa·s and 2.42 ± 0.1 mPa·s and 2.26 ± 0.08 mPa·s | viscosity (298.15 K, 101.33 kPa, x1 = 0.0745): 2.78 ± 0.018 mPa·s | viscosity (298.15 K, 101.33 kPa, x1 = 0.0798): 2.818 ± 0.014 mPa·s | viscosity (298.15 K, 101.33 kPa, x1 = 0.094): 3.16 ± 0.13 mPa·s and 2.97 ± 0.1 mPa·s | viscosity (298.15 K, 101.33 kPa, x1 = 0.1): 3.26 ± 0.13 mPa·s and 3.05 ± 0.1 mPa·s | viscosity (298.15 K, 101.33 kPa, x1 = 0.101): 3.238 ± 0.016 mPa·s | viscosity (298.15 K, 101.33 kPa, x1 = 0.1121): 3.55 ± 0.023 mPa·s | viscosity (298.15 K, 101.33 kPa, x1 = 0.1181): 3.532 ± 0.018 mPa·s | viscosity (298.15 K, 101.33 kPa, x1 = 0.139): 3.88 ± 0.16 mPa·s and 3.66 ± 0.12 mPa·s | viscosity (298.15 K, 101.33 kPa, x1 = 0.1395): 3.842 ± 0.019 mPa·s | viscosity (298.15 K, 101.33 kPa, x1 = 0.1574): 4.288 ± 0.028 mPa·s | viscosity (298.15 K, 101.33 kPa, x1 = 0.1609): 4.176 ± 0.021 mPa·s | viscosity (298.15 K, 101.33 kPa, x1 = 0.196): 4.47 ± 0.18 mPa·s and 4.41 ± 0.15 mPa·s | viscosity (298.15 K, 101.33 kPa, x1 = 0.198): 4.441 ± 0.022 mPa·s | viscosity (298.15 K, 101.33 kPa, x1 = 0.2199): 4.888 ± 0.034 mPa·s | viscosity (298.15 K, 101.33 kPa, x1 = 0.267): 4.89 ± 0.2 mPa·s and 4.86 ± 0.16 mPa·s | viscosity (298.15 K, 101.33 kPa, x1 = 0.3027): 4.984 ± 0.025 mPa·s | viscosity (298.15 K, 101.33 kPa, x1 = 0.3035): 5.292 ± 0.038 mPa·s | viscosity (298.15 K, 101.33 kPa, x1 = 0.362): 4.99 ± 0.2 mPa·s and 4.96 ± 0.16 mPa·s | viscosity (298.15 K, 101.33 kPa, x1 = 0.4285): 5.484 ± 0.049 mPa·s | viscosity (298.15 K, 101.33 kPa, x1 = 0.4313): 5.285 ± 0.052 mPa·s | viscosity (298.15 K, 101.33 kPa, x1 = 0.4315): 5.316 ± 0.048 mPa·s | viscosity (298.15 K, 101.33 kPa, x1 = 0.493): 4.86 ± 0.2 mPa·s and 4.86 ± 0.16 mPa·s | viscosity (298.15 K, 101.33 kPa, x1 = 0.4939): 5.199 ± 0.043 mPa·s | viscosity (298.15 K, 101.33 kPa, x1 = 0.5001): 4.811 ± 0.024 mPa·s | viscosity (298.15 K, 101.33 kPa, x1 = 0.5965): 4.912 ± 0.043 mPa·s | viscosity (298.15 K, 101.33 kPa, x1 = 0.686): 4.48 ± 0.18 mPa·s and 4.5 ± 0.15 mPa·s | viscosity (298.15 K, 101.33 kPa, x1 = 0.6961): 4.646 ± 0.044 mPa·s | viscosity (298.15 K, 101.33 kPa, x1 = 0.6976): 4.409 ± 0.022 mPa·s | viscosity (298.15 K, 101.33 kPa, x1 = 0.7888): 4.392 ± 0.044 mPa·s | viscosity (298.15 K, 101.33 kPa, x1 = 0.7907): 4.397 ± 0.044 mPa·s | viscosity (298.15 K, 101.33 kPa, x1 = 0.7931): 4.254 ± 0.021 mPa·s | viscosity (298.15 K, 101.33 kPa, x1 = 0.822): 4.27 ± 0.17 mPa·s and 4.28 ± 0.14 mPa·s | viscosity (298.15 K, 101.33 kPa, x1 = 0.8932): 4.308 ± 0.046 mPa·s | viscosity (298.15 K, 101.33 kPa, x1 = 0.9088): 4.222 ± 0.021 mPa·s | viscosity (298.15 K, 101.33 kPa, x1 = 0.9422): 4.288 ± 0.021 mPa·s | viscosity (298.15 K, 101.33 kPa, x1 = 0.96): 4.37 ± 0.18 mPa·s and 4.41 ± 0.15 mPa·s | viscosity (298.15 K, 101.33 kPa, x1 = 0.9734): 4.408 ± 0.022 mPa·s | viscosity (303 K, 101 kPa, x2 = 0.3): 3.527 ± 0.021 mPa·s | viscosity (303 K, 101 kPa, x2 = 0.5): 3.881 ± 0.023 mPa·s | viscosity (303 K, 101 kPa, x2 = 0.65): 3.975 ± 0.023 mPa·s | viscosity (303 K, 101 kPa, x2 = 0.91): 2.475 ± 0.015 mPa·s | viscosity (303 K, 101 kPa, x2 = 0.95): 1.772 ± 0.011 mPa·s | viscosity (303.2 K, 101.33 kPa, x2 = 0.05): 3.236 ± 0.022 mPa·s | viscosity (303.2 K, 101.33 kPa, x2 = 0.1): 3.214 ± 0.022 mPa·s | viscosity (303.2 K, 101.33 kPa, x2 = 0.15): 3.247 ± 0.022 mPa·s | viscosity (303.2 K, 101.33 kPa, x2 = 0.2): 3.309 ± 0.023 mPa·s | viscosity (303.2 K, 101.33 kPa, x2 = 0.3): 3.455 ± 0.024 mPa·s | viscosity (303.2 K, 101.33 kPa, x2 = 0.4): 3.599 ± 0.025 mPa·s | viscosity (303.2 K, 101.33 kPa, x2 = 0.5): 3.743 ± 0.027 mPa·s | viscosity (303.2 K, 101.33 kPa, x2 = 0.6): 3.877 ± 0.029 mPa·s | viscosity (303.2 K, 101.33 kPa, x2 = 0.7): 3.836 ± 0.029 mPa·s | viscosity (303.2 K, 101.33 kPa, x2 = 0.8): 3.541 ± 0.027 mPa·s | viscosity (303.2 K, 101.33 kPa, x2 = 0.85): 3.182 ± 0.024 mPa·s | viscosity (303.2 K, 101.33 kPa, x2 = 0.9): 2.604 ± 0.02 mPa·s | viscosity (303.2 K, 101.33 kPa, x2 = 0.95): 1.738 ± 0.014 mPa·s | viscosity (304 K, 101 kPa, x2 = 0.75): 3.646 ± 0.021 mPa·s | viscosity (305 K, 101 kPa, x2 = 0.1): 3.026 ± 0.019 mPa·s | viscosity (308.15 K, 101 kPa, x1 = 0.05): 1.541 ± 0.011 mPa·s | viscosity (308.15 K, 101 kPa, x1 = 0.1): 2.188 ± 0.016 mPa·s | viscosity (308.15 K, 101 kPa, x1 = 0.2): 2.951 ± 0.026 mPa·s | viscosity (308.15 K, 101 kPa, x1 = 0.3): 3.186 ± 0.034 mPa·s | viscosity (308.15 K, 101 kPa, x1 = 0.4): 3.219 ± 0.041 mPa·s | viscosity (308.15 K, 101 kPa, x1 = 0.5): 3.116 ± 0.046 mPa·s | viscosity (308.15 K, 101 kPa, x1 = 0.6): 2.973 ± 0.05 mPa·s | viscosity (308.15 K, 101 kPa, x1 = 0.7): 2.837 ± 0.054 mPa·s | viscosity (308.15 K, 101 kPa, x1 = 0.8): 2.701 ± 0.057 mPa·s | viscosity (308.15 K, 101 kPa, x1 = 0.9): 2.635 ± 0.062 mPa·s | viscosity (308.15 K, 101 kPa, x1 = 0.95): 2.606 ± 0.064 mPa·s | viscosity (313 K, 101 kPa, x2 = 0.1): 2.146 ± 0.014 mPa·s | viscosity (313 K, 101 kPa, x2 = 0.3): 2.33 ± 0.015 mPa·s | viscosity (313 K, 101 kPa, x2 = 0.5): 2.586 ± 0.016 mPa·s | viscosity (313 K, 101 kPa, x2 = 0.65): 2.674 ± 0.016 mPa·s | viscosity (313 K, 101 kPa, x2 = 0.75): 2.587 ± 0.015 mPa·s | viscosity (313 K, 101 kPa, x2 = 0.91): 1.747 ± 0.011 mPa·s | viscosity (313 K, 101 kPa, x2 = 0.95): 1.287 ± 0.008 mPa·s | viscosity (313.15 K, 101 kPa, x1 = 0.05): 1.311 ± 0.009 mPa·s | viscosity (313.15 K, 101 kPa, x1 = 0.07): 1.54 ± 0.011 mPa·s | viscosity (313.15 K, 101 kPa, x1 = 0.1): 1.84 ± 0.014 mPa·s | viscosity (313.15 K, 101 kPa, x1 = 0.2): 2.453 ± 0.022 mPa·s | viscosity (313.15 K, 101 kPa, x1 = 0.3): 2.615 ± 0.028 mPa·s | viscosity (313.15 K, 101 kPa, x1 = 0.4): 2.618 ± 0.034 mPa·s | viscosity (313.15 K, 101 kPa, x1 = 0.5): 2.534 ± 0.038 mPa·s | viscosity (323 K, 101 kPa, x2 = 0.1): 1.471 ± 0.0096 mPa·s | viscosity (323 K, 101 kPa, x2 = 0.3): 1.623 ± 0.01 mPa·s | viscosity (323 K, 101 kPa, x2 = 0.5): 1.809 ± 0.011 mPa·s | viscosity (323 K, 101 kPa, x2 = 0.65): 1.889 ± 0.012 mPa·s | viscosity (323 K, 101 kPa, x2 = 0.75): 1.85 ± 0.011 mPa·s | viscosity (323 K, 101 kPa, x2 = 0.91): 1.306 ± 0.0081 mPa·s | viscosity (323 K, 101 kPa, x2 = 0.95): 0.9856 ± 0.0063 mPa·s | viscosity (323.15 K, 100 kPa, x1 = 0.1): 1.273 ± 0.053 mPa·s | viscosity (323.15 K, 100 kPa, x1 = 0.3): 1.834 ± 0.075 mPa·s | viscosity (323.15 K, 100 kPa, x1 = 0.4): 1.833 ± 0.075 mPa·s | viscosity (323.15 K, 100 kPa, x1 = 0.5): 1.696 ± 0.07 mPa·s | viscosity (323.15 K, 100 kPa, x1 = 0.75): 1.429 ± 0.059 mPa·s
